Read-outs that look alike come from different tables or passages of the source.
Tests used:
[1] = system: human neonatal dermal fibroblast; test: UV-A irradiation-induced cell damage, amino acid added after irradiation (Alamar Blue); type: cell-based; details: for fluorescent intensity of Alamar Blue: without irradiation 764, negative control 348; for percentage of the viable cell: UV-A 8 J/cm^2, FIG. 3
Method: (§1) The cell employed was a commercially available human neonatal dermal fibroblast (Cryo NHDF-Neo, Sanko-Junyaku Co., Ltd.). This cell was inoculated at 2×10^5 cells/mL to a commercially available culture dish of 35 mm in diameter (BD FALCON 353001, Becton Dickinson Japan), where it was cultured in a commercially available cell culture medium (D-MEM (1 g/L glucose, Wako Pure Chemical Industries, Ltd.) supplemented with 10% fetal bovine serum (hereinafter, referred to as “normal medium”). The cell described above may be cultured in the normal medium described above supplemented with an antibiotic (15240-062, Gibco) at 1%. This cell was cultured for about 24 hours in a 5% CO2 and saturated water vapor atmosphere at 37° C. (degrees Celsius).
(§2) Thereafter, the culture medium for culturing the cell described above was switched to 1 mL of a BSO medium supplemented with a glutathione biosynthesis inhibitor BSO (L-buthionine-(S,R)-sulfoximine, Wako Pure Chemical Industries, Ltd.) at 1×10^−3%, where the culture was conducted for about 24 hours in a 5% CO2 and saturated water vapor atmosphere at 37° C. (degrees Celsius). The BSO medium described above was prepared by a 200-fold dilution of a stock solution containing 0.2% BSO dissolved in ethyl alcohol with the normal medium described above.
(§3) […] was dissolved in a distilled water at 2×10^−3%, and the resultant solution was subjected to a 200-fold dilution (final concentration: 1×10^−5%) with a phosphate buffered saline PBS (+) containing calcium ion and magnesium ion to obtain a medium (hereinafter, referred to as “UV irradiation medium”), which was warmed preliminarily to 37° C. before use.
(§4) Before UV-A irradiation, the culture medium was replaced with 1 mL of the UV irradiation medium described above. […] The UV dose was measured using UV RADIOMETER UVR-3036/S (Topcon Corporation).
After UV-A irradiation at 8 J/cm^2, the medium was returned to the normal medium described above, and the culture was conducted in a 5% CO2 and saturated water vapor atmosphere at 37° C. (degrees Celsius) for 40 hours. For determining the effect of adding methionine after UV irradiation (hereinafter, referred to as “post-irradiation addition of methionine”), this 40-hour cultured medium was added with 0.001 to 100 μM (micro-molar) L- or D-methionine. The ultraviolet irradiation after switching into a medium added with 0.1 μM (micro-molar) D-proline was employed as a positive control, while the ultraviolet irradiation to the medium still being free of such an added amino acid was employed as a negative control.
(§5) Thereafter, the culture medium was supplemented with Alamar Blue (trade mark, Biosource, Biosource International Inc. and Invitrogen) at a final concentration of […], and its supernatant was determined for the fluorescent intensity three hours later with an excitation wavelength of 544 nm and a fluorescent wavelength of 590 nm as described by Ahmed S. A. et al. J. Immunol. Method. 170, 211-224 (1994)) and in accordance with the manufacture's instruction. The percentage of the viable cell was obtained as a percentage of a quotient calculated by dividing the fluorescent intensity of Alamar Blue under each experimental condition by the fluorescent intensity in the negative control group containing no added amino acid.
(§6) the cell culture, the addition of amino acids before the UV irradiation, the UV irradiation, the addition of amino acids after the UV irradiation and the cell damage measurement were conducted similarly to Example 1. The ultraviolet light (UV-A) was irradiated at 7.5 or 9 J/cm^2.

[2] = system: human neonatal dermal fibroblast; details: for percentage of the viable cell: human, 24 h; for fluorescent intensity of Alamar Blue / effect on cell damage, in words: UV-A 9 J/cm^2, FIG. 4; for fluorescent intensity of Alamar Blue: without irradiation 794, negative control 140; for effect on cell damage, in words: pre-irradiation addition
Method: as §1, §2
For determining the effect of adding methionine before ultraviolet irradiation (hereinafter, referred to as “pre-irradiation addition of methionine”), the culture medium was switched to a BSO medium added with 0.0001 to 100 (micro-molar) L-methionine (131-01603, Wako Pure Chemical Industries Ltd.) or D-methionine (2807, Peptide Institute Inc.) 24 hours before the irradiation. The ultraviolet irradiation after switching into a medium added with 0.1 μM (micro-molar) D-proline (165-14671, Wako Pure Chemical Industries Ltd.) was employed as a positive control, while the ultraviolet irradiation to the medium still being free of such an added amino acid was employed as a negative control.
as §3, §4, §5, §6

[3] = post-irradiation addition 0.1 μM, UV-A 7.5 J/cm^2, FIG. 6
[4] = pre-irradiation addition 0.1 μM
[5] = post-irradiation addition 0.1 μM

SMILES	fluorescent intensity of Alamar Blue [1, 3]	percentage of the viable cell ([2]; 0.0001 μM) [%]	percentage of the viable cell ([2]; 0.01 μM) [%]	percentage of the viable cell ([2]; 10 μM) [%]	fluorescent intensity of Alamar Blue [2, 4]	fluorescent intensity of Alamar Blue ([2]; pre-irradiation addition 1 μM)	fluorescent intensity of Alamar Blue ([2]; pre-irradiation addition 10 μM)	effect on cell damage, in words [2]	percentage of the viable cell [1, 5] [%]	percentage of the viable cell ([2]; 1 μM) [%]	percentage of the viable cell ([2]; 100 μM) [%]	also measured
N[C@H](CO)C(=O)O [D-serine]	735	74	92	93	402	371	491	statistically significant increase in the fluorescent intensity	–	–	–	fluorescent intensity of Alamar Blue ([1]; post-irradiation addition 0.01 μM, UV-A 7.5 J/cm^2, FIG. 6): 697; fluorescent intensity of Alamar Blue ([1]; post-irradiation addition 1 μM, UV-A 7.5 J/cm^2, FIG. 6): 742; fluorescent intensity of Alamar Blue ([1]; post-irradiation addition 10 μM, UV-A 7.5 J/cm^2, FIG. 6): 664; fluorescent intensity of Alamar Blue ([1]; post-irradiation addition 100 μM, UV-A 7.5 J/cm^2, FIG. 6): 663; effect on cell damage, in words ([1]; post-irradiation addition, UV-A 7.5 J/cm^2, FIG. 6): statistically significant increase in the fluorescent intensity; fluorescent intensity of Alamar Blue ([2]; pre-irradiation addition 0.01 μM): 445
O=C(O)[C@H]1CCCN1 [D-proline, reference compound]	579	–	–	–	610	–	–	–	82	–	–	–
CSCC[C@H](N)C(=O)O [L-methionine]	–	–	72	73	–	–	–	–	–	45	62	percentage of the viable cell ([2]; 0.001 μM): 40%; percentage of the viable cell ([2]; 0.1 μM): 67%
N[C@@H](CO)C(=O)O [L-serine, reference compound]	–	–	–	–	265	227	270	almost no reduction in the cell damage	–	–	–	–
CSCC[C@@H](N)C(=O)O [D-methionine]	–	50	102	114	–	–	–	–	84	97	76	percentage of the viable cell ([1]; post-irradiation addition 0.01 μM): 93%; percentage of the viable cell ([1]; post-irradiation addition 1 μM): 82%; percentage of the viable cell ([1]; post-irradiation addition 10 μM): 81%; percentage of the viable cell ([1]; post-irradiation addition 100 μM): about 87%
